According to patent US20020137929A1, “1 - (3-heterocyclylphenyl) isothiourea, -isourea, -guanidine and -amidine herbicidal agents” (Intellectual Property Department, BASF Aktiengesellschaft, priority 1998, published 2002):

Tests used:
ORYSAT (Rice, Tebonnet) [1] = experiment: Postemergence herbicidal evaluation; type: in vivo, Oryza sativa, (L.) Tebonnet; conditions: for ORYSAT herbicidal rating: postemergence
Outline: (§1)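 Each compound, dispersed in an acetone/water mix (50/50) carrying 0.5% TWEEN 20, is nozzle-sprayed at 40 psi on approximately two-week-old seedlings at about 0.0156–0.500 kg/ha. Plants are assessed 4–5 weeks afterward on a 0–9 scale relative to control; duplicate tests are averaged.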

ZEAMX (Corn, Field) = experiment: Preemergence herbicidal evaluation; type: in vivo, Zea mays; conditions: rated 4-5 weeks after treatment
Outline: (§2)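 Test compound, dissolved in aqueous acetone, was sprayed over planted soil cups at an equivalent of about 0.0156 to 0.500 kg/ha; seeds had been mixed with potting soil. Greenhouse growth followed, with visual 0-9 scoring of injury at four to five weeks.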

CASOB (Sicklepod) = experiment: Postemergence herbicidal evaluation; type: in vivo, Cassia obtusifolia; conditions: for CASOB herbicidal rating: postemergence
Outline: as §1

MOOVA (Monochoria) = experiment: Preemergence weed control under flooded paddy conditions; type: in vivo, Monochoria vaginalis; conditions: rated 3-4 weeks after treatment
Outline: (§3)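 Values are visual 0-9 scores against a control for a preemergence application into paddy flood water at about 0.0313 to 0.500 kg/ha. Greenhouse duration was three to four weeks.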

CYPSE (Flatsedge) = experiment: Postemergence weed control under flooded paddy conditions; type: in vivo, Cyperus serotinus; conditions: postemergence weeds, 3-4 weeks after treatment
Outline: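 Herbicidal effect is judged by eye on a 0–9 scale versus control, 3–4 weeks after dosing. Dosing is into flood water kept 1.5–3 cm over the soil, at about 0.0313–0.500 kg/ha in aqueous/acetone 50/50 v/v, on 3–5 cm weeds and 1.5–2.5-leaf rice seedlings.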

[2] = test system: SAGPY (Arrowhead (Pygmaea)); experiment: Preemergence weed control under flooded paddy conditions; type: in vivo, Sagittaria pygmaea; conditions: rated 3-4 weeks after treatment
Outline: as §3

CYPIR (Rice Flatsedge) = experiment: as above; type: in vivo, Cyperus iria; conditions: rated 3-4 weeks after treatment
Outline: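 Visual injury scored 0-9 against control three to four weeks post-treatment, greenhouse-grown. Application: acetone/water (50/50) solutions dosed directly into flood water (1.5-3 cm over silt loam, planted top 0.5 cm), roughly 0.0313 to 0.500 kg/ha active ingredient.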

ECHCG (Barnyardgrass) = experiment: Postemergence herbicidal evaluation; type: in vivo, Echinochloa crus-galli; conditions: for ECHCG herbicidal rating: postemergence
Outline: as §1

[3] = test system: CHEAL (Lambsquarters, Common); experiment: Postemergence herbicidal evaluation; type: in vivo, Chenopodium album; conditions: for CHEAL herbicidal rating: postemergence
Outline: as §1

ORYSAT (Rice, Tebonnet) [4] = experiment: Preemergence herbicidal evaluation; type: in vivo, Oryza sativa, (L.) Tebonnet; conditions: rated 4-5 weeks after treatment
Outline: as §2

GALAP (Galium) = experiment: Preemergence herbicidal evaluation; type: in vivo, Galium aparine; conditions: rated 4-5 weeks after treatment
Outline: as §2

[5] = test system: TRZAWR (Wheat, Winter, cv Riband); experiment: Preemergence herbicidal evaluation; type: in vivo, Triticum aestivum; conditions: rated 4-5 weeks after treatment
Outline: as §2

[6] = test system: GLXMAW (Soybean, Williams); experiment: Preemergence herbicidal evaluation; type: in vivo, Glycine max, (L.) Merr. cv Williams; conditions: rated 4-5 weeks after treatment
Outline: as §2

SETVI (Foxtail, Green) = experiment: Preemergence herbicidal evaluation; type: in vivo, Setaria viridis; conditions: rated 4-5 weeks after treatment
Outline: as §2

Cn1c(C(F)(F)F)cc(=O)n(-c2cc(/N=C3/SCC(=O)N3CC(=O)O)c(Cl)cc2F)c1=O [Compound 52, 2-{{2-Chloro-5-[3,6-dihydro-3-methyl-2,6-dioxo-4-(trifluoromethyl)-1(2H)-pyrimidinyl]-4-fluoro-phenyl}imino}-4-oxo-3-thiazolidineacetic acid]
0.0: Preemergence herbicidal rating ZEAMX (ZEAMX (Corn, Field); rate 0.0313 kg/ha) | Preemergence herbicidal rating ZEAMX (ZEAMX (Corn, Field); rate 0.0625 kg/ha) | Herbicidal rating CYPSE (CYPSE (Flatsedge); rate 0.2500 kg/ha) | Herbicidal rating SAGPY ([2]; 0.2500 kg/ha) | Preemergence herbicidal rating ORYSAT (ORYSAT (Rice, Tebonnet) [4]; rate 0.0313 kg/ha) | Preemergence herbicidal rating ORYSAT (ORYSAT (Rice, Tebonnet) [4]; rate 0.0625 kg/ha) | Preemergence herbicidal rating ORYSAT (ORYSAT (Rice, Tebonnet) [4]; rate 0.1250 kg/ha) | Preemergence herbicidal rating GALAP (GALAP (Galium); rate 0.0313 kg/ha) | Preemergence herbicidal rating GALAP (GALAP (Galium); rate 0.0625 kg/ha) | Preemergence herbicidal rating GALAP (GALAP (Galium); rate 0.1250 kg/ha) | Preemergence herbicidal rating TRZAWR ([5]; rate 0.0313 kg/ha) | Preemergence herbicidal rating TRZAWR ([5]; rate 0.0625 kg/ha) | Preemergence herbicidal rating GLXMAW ([6]; rate 0.0313 kg/ha) | Preemergence herbicidal rating SETVI (SETVI (Foxtail, Green); rate 0.0313 kg/ha) | Preemergence herbicidal rating SETVI (SETVI (Foxtail, Green); rate 0.0625 kg/ha)
2.0: Postemergence herbicidal rating ORYSAT (ORYSAT (Rice, Tebonnet) [1]; Rate 0.0630 kg/ha) | Postemergence herbicidal rating CASOB (CASOB (Sicklepod); Rate 0.0630 kg/ha) | Herbicidal rating CYPIR (CYPIR (Rice Flatsedge); 0.2500 kg/ha) | Preemergence herbicidal rating TRZAWR ([5]; rate 0.1250 kg/ha) | Preemergence herbicidal rating GLXMAW ([6]; rate 0.2500 kg/ha)
9.0: Preemergence herbicidal rating SETVI (SETVI (Foxtail, Green); rate 0.2500 kg/ha)
7.0: Preemergence herbicidal rating GALAP (GALAP (Galium); rate 0.2500 kg/ha)
1.0: Postemergence herbicidal rating ORYSAT (ORYSAT (Rice, Tebonnet) [1]; Rate 0.0158 kg/ha) | Postemergence herbicidal rating ORYSAT (ORYSAT (Rice, Tebonnet) [1]; Rate 0.0315 kg/ha) | Preemergence herbicidal rating ZEAMX (ZEAMX (Corn, Field); rate 0.1250 kg/ha) | Postemergence herbicidal rating CASOB (CASOB (Sicklepod); Rate 0.0158 kg/ha) | Postemergence herbicidal rating CASOB (CASOB (Sicklepod); Rate 0.0315 kg/ha) | Postemergence herbicidal rating ECHCG (ECHCG (Barnyardgrass); Rate 0.0158 kg/ha) | Postemergence herbicidal rating ECHCG (ECHCG (Barnyardgrass); Rate 0.0315 kg/ha) | Preemergence herbicidal rating GLXMAW ([6]; rate 0.0625 kg/ha) | Preemergence herbicidal rating GLXMAW ([6]; rate 0.1250 kg/ha) | Preemergence herbicidal rating SETVI (SETVI (Foxtail, Green); rate 0.1250 kg/ha)
6.0: Postemergence herbicidal rating CHEAL ([3]; Rate 0.0630 kg/ha)
5.0: Preemergence herbicidal rating TRZAWR ([5]; rate 0.2500 kg/ha)
3.0: Preemergence herbicidal rating ZEAMX (ZEAMX (Corn, Field); rate 0.2500 kg/ha)
4.0: Herbicidal rating MOOVA (MOOVA (Monochoria); 0.2500 kg/ha) | Postemergence herbicidal rating ECHCG (ECHCG (Barnyardgrass); Rate 0.0630 kg/ha) | Postemergence herbicidal rating CHEAL ([3]; Rate 0.0158 kg/ha) | Postemergence herbicidal rating CHEAL ([3]; Rate 0.0315 kg/ha) | Preemergence herbicidal rating ORYSAT (ORYSAT (Rice, Tebonnet) [4]; rate 0.2500 kg/ha)

CCOC(=O)CN1C(=O)C(=C(C)C)S/C1=N/c1cc(-n2c(=O)cc(C(F)(F)F)n(C)c2=O)c(F)cc1Cl [Compound 20, Ethyl 2-{{2-chloro-5-[3,6-dihydro-3-methyl-2,6-dioxo-4-(trifluoromethyl)-1(2H)-pyrimidinyl]-4-fluorophenyl}imino}-5-isopropylidene-4-oxo-3-thiazolidineacetate]
9.0: Herbicidal rating MOOVA (MOOVA (Monochoria); 0.1160 kg/ha) | Herbicidal rating MOOVA (MOOVA (Monochoria); 0.2310 kg/ha) | Herbicidal rating MOOVA (MOOVA (Monochoria); 0.4630 kg/ha)
1.0: ECHCG herbicidal rating (ECHCG (Barnyardgrass); rate 0.0158 kg/ha) | ECHCG herbicidal rating (ECHCG (Barnyardgrass); rate 0.0315 kg/ha)
0.0: ZEAMX preemergence herbicidal rating (ZEAMX (Corn, Field); rate 0.0625 kg/ha) | ZEAMX preemergence herbicidal rating (ZEAMX (Corn, Field); rate 0.1250 kg/ha) | ZEAMX preemergence herbicidal rating (ZEAMX (Corn, Field); rate 0.2500 kg/ha) | CASOB herbicidal rating (CASOB (Sicklepod); rate 0.0158 kg/ha) | CASOB herbicidal rating (CASOB (Sicklepod); rate 0.0315 kg/ha) | Herbicidal rating SAGPY ([2]; 0.1160 kg/ha) | Herbicidal rating SAGPY ([2]; 0.2310 kg/ha) | Herbicidal rating CYPIR (CYPIR (Rice Flatsedge); 0.1160 kg/ha) | Herbicidal rating CYPIR (CYPIR (Rice Flatsedge); 0.2310 kg/ha) | Herbicidal rating CYPIR (CYPIR (Rice Flatsedge); 0.4630 kg/ha) | ORYSAT preemergence herbicidal rating (ORYSAT (Rice, Tebonnet) [4]; rate 0.0625 kg/ha) | ORYSAT preemergence herbicidal rating (ORYSAT (Rice, Tebonnet) [4]; rate 0.1250 kg/ha) | ORYSAT preemergence herbicidal rating (ORYSAT (Rice, Tebonnet) [4]; rate 0.2500 kg/ha) | GALAP preemergence herbicidal rating (GALAP (Galium); rate 0.0625 kg/ha) | GALAP preemergence herbicidal rating (GALAP (Galium); rate 0.1250 kg/ha) | GALAP preemergence herbicidal rating (GALAP (Galium); rate 0.2500 kg/ha) | TRZAWR preemergence herbicidal rating ([5]; rate 0.0625 kg/ha) | TRZAWR preemergence herbicidal rating ([5]; rate 0.1250 kg/ha) | TRZAWR preemergence herbicidal rating ([5]; rate 0.2500 kg/ha) | GLXMAW preemergence herbicidal rating ([6]; rate 0.0625 kg/ha) | GLXMAW preemergence herbicidal rating ([6]; rate 0.1250 kg/ha) | SETVI preemergence herbicidal rating (SETVI (Foxtail, Green); rate 0.0625 kg/ha) | SETVI preemergence herbicidal rating (SETVI (Foxtail, Green); rate 0.1250 kg/ha)
3.0: ORYSAT herbicidal rating (ORYSAT (Rice, Tebonnet) [1]; rate 0.0630 kg/ha) | Herbicidal rating SAGPY ([2]; 0.4630 kg/ha)
2.0: ORYSAT herbicidal rating (ORYSAT (Rice, Tebonnet) [1]; rate 0.0158 kg/ha) | ORYSAT herbicidal rating (ORYSAT (Rice, Tebonnet) [1]; rate 0.0315 kg/ha) | CASOB herbicidal rating (CASOB (Sicklepod); rate 0.0630 kg/ha) | ECHCG herbicidal rating (ECHCG (Barnyardgrass); rate 0.0630 kg/ha)
7.0: CHEAL herbicidal rating ([3]; rate 0.0630 kg/ha) | SETVI preemergence herbicidal rating (SETVI (Foxtail, Green); rate 0.2500 kg/ha)
6.0: CHEAL herbicidal rating ([3]; rate 0.0315 kg/ha)
4.0: CHEAL herbicidal rating ([3]; rate 0.0158 kg/ha) | GLXMAW preemergence herbicidal rating ([6]; rate 0.2500 kg/ha)
5.0: Herbicidal rating CYPSE (CYPSE (Flatsedge); rate 0.1160 kg/ha) | Herbicidal rating CYPSE (CYPSE (Flatsedge); rate 0.2310 kg/ha) | Herbicidal rating CYPSE (CYPSE (Flatsedge); rate 0.4630 kg/ha)
